Laboratory results published in US20240366624A1, “METHODS AND COMPOSITIONS FOR TREATING THROMBOTIC DISEASE” (Washington University, priority 2023, published 2024).

Test system: WT (C57BL/6) mice
Assay: Ex vivo platelet activation and aggregation after intravenous injection
Format: in vivo, mouse
Procedure: FIG. 19(A-Q) is an exemplary embodiment of B12-5 having an antithrombotic effect without prolonging tail bleeding times in mice in accordance with the present disclosure. FIG. 19(A-C): Ex vivo effects of B12-5. […] One hour later, blood was drawn, followed by isolating platelets. P-selectin exposure (FIG. 19A) and αIIbβ3 integrin activation (FIG. 19B) were assessed in flow cytometry. FIG. 19C: Platelet aggregation was measured after treatment with 0.025 U/mL thrombin. The data represent the mean±SD (n=4). FIG. 19D: The plasma levels of B12-5 were analyzed by liquid chromatography-tandem mass spectrometry (LC-MS/MS) after intravenous injection of the compound (5 μg/g BW) into WT mice and quantified by comparison with a standard curve of B12-5 (mean±SD, n=3). […] The median integrated fluorescence intensities of anti-CD42c (F platelet) and anti-fibrin (F fibrin) antibodies (n=37-42 arterioles in 6 mice per group). Quantification of the antibody signal at a different time point after laser injury. […] Thirty minutes later, tail bleeding times and Hb contents were measured after amputation of the tail tip. […] Twenty-three hours later, neurological deficits were assessed by the Bederson score and grip test, and infarct volume was measured as described in Methods. […] Twenty-three hours later, the neurological deficit and infarct volume were measured as described above. […]

**Q.** Which results are given for `O=C(CSc1nc(O)cc(O)n1)N1c2ccccc2Sc2ccccc21` [B12-5]?
**A.** inhibitory effects ex vivo (2 μg/g BW, data not shown): did not show inhibitory effects; P-selectin exposure, αIIbβ3 integrin activation, and aggregation ex vivo (iv 5 μg/g BW, blood drawn 1 hour later): significantly inhibited
